Results from the supplement of paper PMC13380429.

How the values were obtained:
Conditions in all cases: 72 h
[1] = tested on: Caco-2; test: relative viability EC50 (midpoint between 100% and the lowest measured viability); higher = less toxic
[2] = tested on: Vero E6; test: as above
[3] = tested on: HepG2; test: as above
[4] = tested on: Calu-3; test: as above
[5] = tested on: U2OS; test: as above
[6] = tested on: Caco-2; test: drug sensitivity score (DSS) for viability; higher = more toxic; extreme values may be limits of the assay
[7] = tested on: Vero E6; test: as above
[8] = tested on: HepG2; test: as above
[9] = tested on: Calu-3; test: as above
[10] = tested on: U2OS; test: as above
[11] = tested on: Caco-2; test: cell viability relative to DMSO; higher = less toxic
[12] = tested on: Vero E6; test: as above
[13] = tested on: HepG2; test: as above
[14] = tested on: Calu-3; test: as above
[15] = tested on: U2OS; test: as above

Compound | relative viability EC50 [1] | relative viability EC50 [2] | relative viability EC50 [3] | relative viability EC50 [4] | relative viability EC50 [5] | drug sensitivity score [6] | drug sensitivity score [7] | drug sensitivity score [8] | drug sensitivity score [9] | drug sensitivity score [10] | cell viability ([11]; 1 nM) | cell viability ([11]; 10 nM) | cell viability ([11]; 100 nM) | cell viability ([11]; 1000 nM) | cell viability ([11]; 10000 nM) | cell viability ([12]; 1 nM) | cell viability ([12]; 10 nM) | cell viability ([12]; 100 nM) | cell viability ([12]; 1000 nM) | cell viability ([12]; 10000 nM) | cell viability ([13]; 1 nM) | cell viability ([13]; 10 nM) | cell viability ([13]; 100 nM) | cell viability ([13]; 1000 nM) | cell viability ([13]; 10000 nM) | cell viability ([14]; 1 nM) | cell viability ([14]; 10 nM) | cell viability ([14]; 100 nM) | cell viability ([14]; 1000 nM) | cell viability ([14]; 10000 nM) | cell viability ([15]; 1 nM) | cell viability ([15]; 10 nM) | cell viability ([15]; 100 nM) | cell viability ([15]; 1000 nM) | cell viability ([15]; 10000 nM)
CCCN(CCC)[C@H]1CCc2ccc(O)cc2C1 [7-hydroxy-DPAT] | > 10 µM | > 10 µM | > 10 µM | > 10 µM | > 10 µM | 0 | 0 | 0 | 0 | 0 | 96.5% | 95.4% | 106% | 100% | 96.4% | 101% | 105% | 101% | 104% | 99.4% | 112% | 106% | 92.8% | 99.9% | 99.5% | 92.7% | 89.7% | 98.7% | 102% | 96% | 101% | 97.1% | 101% | 104% | 103%
CN(CCOc1ccc(NS(C)(=O)=O)cc1)CCc1ccc(NS(C)(=O)=O)cc1 [dofetilide] | > 10 µM | > 10 µM | > 10 µM | > 10 µM | > 10 µM | 0 | 0 | 0 | 0 | 0 | 91.1% | 99.9% | 99.1% | 97.1% | 102% | 92.6% | 104% | 90.2% | 98.1% | 110% | 100% | 102% | 89.5% | 117% | 118% | 111% | 90.4% | 101% | 98.6% | 104% | 100% | 102% | 102% | 96.6% | 97%
O=C(O)c1ccccc1Nc1cc(Cl)ccc1C(=O)O [lobenzarit] | > 10 µM | > 10 µM | > 10 µM | > 10 µM | > 10 µM | 0 | 0 | 0 | 0.2 | 0 | 95.9% | 101% | 99.1% | 93.1% | 98.2% | 97.7% | 97.3% | 86% | 87.4% | 114% | 106% | 109% | 95.6% | 103% | 105% | 111% | 88.1% | 108% | 95.2% | 90.3% | 91.3% | 96% | 101% | 96.9% | 104%
CN1CCC(=C2c3ccccc3CCc3sccc32)CC1 [pizotifen] | > 10 µM | > 10 µM | > 10 µM | > 10 µM | > 10 µM | 0 | 0 | 0 | 0 | 0 | 97.6% | 104% | 101% | 107% | 99.2% | 98.3% | 98.6% | 97.9% | 100% | 103% | 96.2% | 101% | 99.1% | 109% | 101% | 96% | 88.7% | 102% | 91.3% | 98.2% | 94.6% | 95.6% | 101% | 94.4% | 94.6%
O=C(O)CCNc1cc(N2CCc3ccccc3CC2)nc(-c2cccnc2)n1 [GSK-J2] | > 10 µM | > 10 µM | > 10 µM | > 10 µM | > 10 µM | 0.2 | 0 | 0 | 0 | 0 | 96.6% | 100% | 98.6% | 94.8% | 87.1% | 97.3% | 108% | 98.9% | 98% | 99.1% | 99.7% | 97.3% | 96.6% | 98.8% | 103% | 100% | 97.1% | 91.5% | 105% | 97.2% | 98.5% | 95.4% | 94.8% | 98.3% | 91.2%
CNCC(O)c1ccc(OC(=O)C(C)(C)C)c(OC(=O)C(C)(C)C)c1 (stereo not given) [dipivefrine] | > 10 µM | > 10 µM | > 10 µM | > 10 µM | > 10 µM | 0.9 | 0 | 0.5 | 0 | 0 | 104% | 94% | 102% | 90.4% | 85% | 100% | 100% | 93.3% | 98.3% | 97.4% | 97.5% | 94.1% | 98.2% | 97.7% | 84.3% | 97.9% | 102% | 106% | 96.3% | 109% | 99.4% | 95.1% | 97.3% | 96.2% | 97.1%
CC1(C)N=C(N)N=C(N)N1OCCCOc1cc(Cl)c(Cl)cc1Cl | > 10 µM | > 10 µM | > 10 µM | > 10 µM | > 10 µM | 0 | 0 | 0 | 0 | 0 | 99.7% | 91.5% | 95.5% | 102% | 99.6% | 94.7% | 96.8% | 95.3% | 98% | 108% | 104% | 93.8% | 93.9% | 99.5% | 98.7% | 100% | 96.1% | 93.8% | 93.7% | 100% | 99.3% | 93.9% | 99.1% | 95.7% | 95%
CNC(=O)[C@H](Cc1c[nH]c2ccccc12)NC(=O)[C@@H](CC(=O)NO)CC(C)C [ilomastat] | > 10 µM | > 10 µM | > 10 µM | > 10 µM | > 10 µM | 0 | 0 | 0 | 0 | 0 | 94.1% | 104% | 102% | 96.6% | 102% | 97.4% | 97% | 95% | 93.2% | 88.7% | 107% | 90.5% | 104% | 90.5% | 103% | 102% | 98.6% | 107% | 97.3% | 90.4% | 97.6% | 98.2% | 85.8% | 102% | 84.7%
